pKi: −log10 of the molar value.

In the experiment the target is Human PDE9 (PDE9A2) (Homo sapiens (Human), UniProt O76083). Kind of experiment: PDE9 IMAP fluorescence polarization (FP) inhibition assay. In kind it is biochemical. The settings on record: apparent inhibition constant; human PDE9A2, FAM-cGMP substrate 50 nM, room temperature. The method, then: The activity of the compounds in accordance with the present invention as PDE9 inhibitors may be readily determined without undue experimentation using a fluorescence polarization (FP) methodology that is well known in the art (Huang, W., et al., J. Biomol Screen, 2002, 7:215).
Sequence of Human PDE9 (PDE9A2) (O76083 other isoform, or with tags, fused parts or gaps): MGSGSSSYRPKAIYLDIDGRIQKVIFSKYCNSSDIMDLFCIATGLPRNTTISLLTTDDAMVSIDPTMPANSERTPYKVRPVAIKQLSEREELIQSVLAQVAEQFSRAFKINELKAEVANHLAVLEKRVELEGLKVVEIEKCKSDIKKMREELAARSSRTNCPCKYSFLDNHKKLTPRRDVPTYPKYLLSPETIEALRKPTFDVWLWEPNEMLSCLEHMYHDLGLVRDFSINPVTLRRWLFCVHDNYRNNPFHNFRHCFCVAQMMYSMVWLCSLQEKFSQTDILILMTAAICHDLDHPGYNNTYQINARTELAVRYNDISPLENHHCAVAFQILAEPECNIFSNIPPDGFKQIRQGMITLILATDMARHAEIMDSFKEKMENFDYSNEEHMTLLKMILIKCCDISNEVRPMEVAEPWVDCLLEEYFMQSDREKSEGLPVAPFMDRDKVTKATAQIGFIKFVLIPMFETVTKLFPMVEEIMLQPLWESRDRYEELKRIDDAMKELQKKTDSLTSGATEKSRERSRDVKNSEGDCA
In a typical experiment the PDE9 inhibitory activity of the compounds of the present invention was determined in accordance with the following experimental method.
Human PDE9 (PDE9A2, GenBank Accession No. NM_001001567), full length with N-terminal GST tag, was purchased from BPS Bioscience. The fluorescence polarization assay for cyclic nucleotide phosphodiesterases was performed using an IMAP® FP kit supplied by Molecular Devices, Sunnyvale, CA (product #R8139). IMAP® technology has been applied previously to phosphodiesterase assays (Huang, W., et al., J. Biomol Screen, 2002, 7:215). Assays were performed at room temperature in 384-well microtiter plates with an incubation volume of 20.2 μL. Solutions of test compounds were prepared in DMSO and serially diluted with DMSO to yield 8 μL of each of 10 solutions differing by 3-fold in concentration, at 32 serial dilutions per plate. 100% inhibition is determined using a known PDE9 inhibitor, such as 1-(2-chlorophenyl)-6-[(2R)-3,3,3-trifluoro-2-methylpropyl]-1,5-dihydro-4H-pyrazolo[3,4-d]pyrimidine-4-one (BAY 73-6691) (Wunder et al, Mol. Pharmacol., 2005, 68 (6): 1775-81), (6-[(3S,4S)-4-methyl-1-(pyrimidin-2-ylmethyl) pyrrolidin-3-yl]-1-(tetrahydro-2H-pyran-4-yl)-1,5-dihydro-4H-pyrazolo[3,4-d]pyrimidin-4-one (PF-04447943) (Wager et al., ACS Chemical Neuroscience, 2010, 1:435-449). 0% of inhibition is determined by using DMSO (1% final concentrations). A Labcyte Echo 555 (Labcyte, Sunnyvale, CA) is used to dispense 200 nL from each well of the titration plate to the 384 well assay plate. Human PDE9A2 membrane preps were diluted to 1 ng/ml. […] PDE9 enzyme mix and compounds were mixed and incubated at room temperature for 30 min. Following which, FAMcGMP substrate was added, shaken and incubated for an additional 60 min at room temperature. The final concentration of human PDE9 membrane preparations were 0.5 ng/ml. The final concentration of FAM-cGMP was 50 nM. After the incubation period, the enzymatic reaction was stopped by addition of binding solution (IMAP-FP, Molecular Devices, comprised of 80% Solution A, 20% Solution B and a 1:600 dilution of binding reagent) to each well. The plates were shaken then incubated at room temperature for 1 h prior to determining the fluorescence polarization (mP) using a Perkin Elmer En Vision™ plate reader (Waltham, MA).
Fluorescence polarization (mP) was calculated from the parallel(S) and perpendicular (P) fluorescence of each sample well and the analogous values for the median control well, containing only substrate (So and Po), using the following equation: […]
Dose-inhibition profiles for each compound were characterized by fitting the mP data to a four-parameter equation given below. The apparent inhibition constant (KI), the maximum inhibition at the low plateau relative to “100% Inhibition Control” (Imax; e.g. 1=>same as this control), the minimum inhibition at the high plateau relative to the “0% Inhibition Control” (Imin, e.g. 0=>same as the no drug control) and the Hill slope (nH) are determined by a non-linear least squares fitting of the mP values as a function of dose of the compound using an in-house software based on the procedures described by Mosser et al., JALA, 2003, 8:54-63, using the following equation: […]
An apparent (Km) for FAM-labeled […] of 150 nM was determined in separate experiments through simultaneous variation of substrate and selected drug concentrations.
As usually defined, the pKi is the negative decadic logarithm of the Ki, by convention in mol/L. In the case of `CC(c1ncccn1)N(C)c1nc2c(c(C#N)nn2C(C)c2ccc(C(F)(F)F)nc2)c(=O)[nH]1` (single isomer, unassigned) [Example 8, 6-[methyl(1-pyrimidin-2-ylethyl)amino]-4-oxo-1-[1-[6-(trifluoromethyl)-3-pyridyl]ethyl]-5H-pyrazolo[3,4-d]pyrimidine-3-carbonitrile], the pKi was 6.61.
In the case of `CCC(c1ncc(F)cn1)N(C)c1nc2c(c(C#N)nn2C(C)c2ccc(C3CC3)cc2)c(=O)[nH]1` (single isomer, unassigned) [Example 70, 1-[1-(4-cyclopropylphenyl)ethyl]-6-[1-(5-fluoropyrimidin-2-yl)propyl-methyl-amino]-4-oxo-5H-pyrazolo[3,4-d]pyrimidine-3-carbonitrile], the pKi is 10.70.
On to `CCC(Nc1nc2c(c(C#N)nn2C(C)c2ccc(C(F)(F)F)nc2)c(=O)[nH]1)c1ncccn1` (single isomer, unassigned) [Example 72, 4-Oxo-6-((1-(pyrimidin-2-yl)propyl)amino)-1-(1-(6-(trifluoromethyl)pyridin-3-yl)ethyl)-4,5-dihydro-1H-pyrazolo[3,4-d]pyrimidine-3-carbonitrile], for which the pKi is 7.66.
For `CC(c1ccc(C(F)(F)F)nc1)n1nc(C#N)c2c(=O)[nH]c(N3CCCC3c3ncccn3)nc21` (single isomer, unassigned) [Example 54, 4-oxo-6-(2-pyrimidin-2-ylpyrrolidin-1-yl)-1-[1-[6-(trifluoromethyl)-3-pyridyl]ethyl]-5H-pyrazolo[3,4-d]pyrimidine-3-carbonitrile], the pKi was 8.19.
`CCC(c1ncccn1)N(C)c1nc2c(c(C#N)nn2C(C)c2ccc(C3CC3)nc2)c(=O)[nH]1` (single isomer, unassigned) [Example 3, 1-(1-(6-Cyclopropylpyridin-3-yl)ethyl)-6-(methyl(1-(pyrimidin-2-yl)propyl)amino)-4-oxo-4,5-dihydro-1H-pyrazolo[3,4-d]pyrimidine-3-carbonitrile]: the pKi was 8.74.
Regarding `CC(C)C(c1ncccn1)N(C)c1nc2c(c(C#N)nn2C(C)c2ccc(C(F)(F)F)nc2)c(=O)[nH]1` (single isomer, unassigned) [Example 24, 6-[methyl-(2-methyl-1-pyrimidin-2-yl-propyl)amino]-4-oxo-1-[1-[6-(trifluoromethyl)-3-pyridyl]ethyl]-5H-pyrazolo[3,4-d]pyrimidine-3-carbonitrile], the pKi is 7.16.
The figure for `CCC(c1ncc(F)cn1)N(C)c1nc2c(c(C#N)nn2C(C)c2ccc(C3CC3)nc2)c(=O)[nH]1` (single isomer, unassigned) [Example 63, 1-[1-(6-cyclopropyl-3-pyridyl)ethyl]-6-[1-(5-fluoropyrimidin-2-yl)propyl-methyl-amino]-4-oxo-5H-pyrazolo[3,4-d]pyrimidine-3-carbonitrile] is 7.83; for `CC(c1ccc(C(F)(F)F)nc1)n1nc(C#N)c2c(=O)[nH]c(N3CCCC3c3ncccn3)nc21` (single isomer, unassigned) [Example 55, 4-oxo-6-(2-pyrimidin-2-ylpyrrolidin-1-yl)-1-[1-[6-(trifluoromethyl)-3-pyridyl]ethyl]-5H-pyrazolo[3,4-d]pyrimidine-3-carbonitrile] it is 6.91; for `CC(c1ccc(C(F)(F)F)nc1)n1nc(C#N)c2c(=O)[nH]c(N(C)C(c3ncccn3)C3CC3)nc21` (single isomer, unassigned) [Example 28, 6-[[cyclopropyl(pyrimidin-2-yl)methyl]-methyl-amino]-4-oxo-1-[1-[6-(trifluoromethyl)-3-pyridyl]ethyl]-5H-pyrazolo[3,4-d]pyrimidine-3-carbonitrile] it is 7.69.
For `CC(c1ccc(C(F)(F)F)nc1)n1nc(C#N)c2c(=O)[nH]c(N(C)C(c3ncccn3)C3CCC3)nc21` (single isomer, unassigned) [Example 29, 6-[[cyclobutyl(pyrimidin-2-yl)methyl]-methyl-amino]-4-oxo-1-[1-[6-(trifluoromethyl)-3-pyridyl]ethyl]-5H-pyrazolo[3,4-a]pyrimidine-3-carbonitrile], the pKi was 8.05.
As for `CC(c1ccc(C(F)(F)F)nc1)n1nc(C#N)c2c(=O)[nH]c(N3CCC3c3ccc(F)cc3)nc21` (single isomer, unassigned) [Example 50, 6-[2-(4-fluorophenyl)azetidin-1-yl]-4-oxo-1-[1-[6-(trifluoromethyl)-3-pyridyl]ethyl]-5H-pyrazolo[3,4-d]pyrimidine-3-carbonitrile], the pKi was 9.22.
The figure for `CCC(c1ncc(F)cn1)N(C)c1nc2c(c(C#N)nn2C(C)c2ccc(C(F)(F)F)nc2)c(=O)[nH]1` (single isomer, unassigned) [Example 77, 6-((1-(5-fluoropyrimidin-2-yl)propyl)(methyl)amino)-4-oxo-1-(1-(6-(trifluoromethyl)pyridin-3-yl)ethyl)-4,5-dihydro-1H-pyrazolo[3,4-d]pyrimidine-3-carbonitrile] is 9.57; for `CCC(Nc1nc2c(c(C#N)nn2C(C)c2ccc(C(F)(F)F)nc2)c(=O)[nH]1)c1ncccn1` (single isomer, unassigned) [Example 74, 4-Oxo-6-((1-(pyrimidin-2-yl)propyl)amino)-1-(1-(6-(trifluoromethyl)pyridin-3-yl)ethyl)-4,5-dihydro-1H-pyrazolo[3,4-d]pyrimidine-3-carbonitrile] it is 7.94; for `CC(c1ccc(C(F)(F)F)nc1)n1nc(C#N)c2c(=O)[nH]c(CCc3ncc(C4CC4)cn3)nc21` (single isomer, unassigned) [Example 82, 6-(2-(5-cyclopropylpyrimidin-2-yl)ethyl)-4-oxo-1-(1-(6-(trifluoromethyl)pyridin-3-yl)ethyl)-4,5-dihydro-1H-pyrazolo[3,4-d]pyrimidine-3-carbonitrile] it is 7.79.
For the compound `C=CCCC(c1ncccn1)N(C)c1nc2c(c(C#N)nn2C(C)c2ccc(C(F)(F)F)nc2)c(=O)[nH]1` (single isomer, unassigned) [Example 41, 6-[methyl(1-pyrimidin-2-ylpent-4-enyl)amino]-4-oxo-1-[1-[6-(trifluoromethyl)-3-pyridyl]ethyl]-5H-pyrazolo[3,4-d]pyrimidine-3-carbonitrile], the pKi was 9.38.
With `CCC(c1ncc(F)cn1)N(C)c1nc2c(c(C#N)nn2C(C)c2ccc(C3CC3)nc2)c(=O)[nH]1` (single isomer, unassigned) [Example 65, 1-[1-(6-cyclopropyl-3-pyridyl)ethyl]-6-[1-(5-fluoropyrimidin-2-yl)propyl-methyl-amino]-4-oxo-5H-pyrazolo[3,4-d]pyrimidine-3-carbonitrile], the pKi was 10.52.
As to `C=CCCC(c1ncccn1)N(C)c1nc2c(c(C#N)nn2C(C)c2ccc(C(F)(F)F)nc2)c(=O)[nH]1` (single isomer, unassigned) [Example 42, 6-[methyl(1-pyrimidin-2-ylpent-4-enyl)amino]-4-oxo-1-[1-[6-(trifluoromethyl)-3-pyridyl]ethyl]-5H-pyrazolo[3,4-d]pyrimidine-3-carbonitrile], the pKi was 7.88.
In the case of `CCC(c1ncccn1)N(C)c1nc2c(c(C#N)nn2C(C)c2ccc(C(F)(F)F)nc2)c(=O)[nH]1` (single isomer, unassigned) [Example 12, 6-[methyl(1-pyrimidin-2-ylpropyl)amino]-4-oxo-1-[1-[6-(trifluoromethyl)-3-pyridyl]ethyl]-5H-pyrazolo[3,4-d]pyrimidine-3-carbonitrile], the pKi was 7.41.

These data come from patent US20260001888A1, “PYRAZOLOPYRIMIDINE PDE9 INHIBITORS” (Merck Sharp & Dohme LLC, priority 2018, published 2026).
